Common to all, as to assay type: functional
For one test, the species on record is Mus musculus. Nature of the test: Compound concentration that causes inhibition of [3H]-acetyl choline release by 50% was determined using reserpine-alpha MPT treated mice striatal slices.
Test [1] is described as follows: Effect (0.0 uM) on K+-evoked release of [3H]acetylcholine from striatal slices of reserpine-alpha MPT treated mice evoked by two successive exposures (S1and S2) at 55 and 90 min after the start of perfusion.
Test [2] can be described thus: Effect (1.0 uM) on K+-evoked release of [3H]acetylcholine from striatal slices of reserpine-alpha MPT treated mice evoked by two successive exposures (S1and S2) at 55 and 90 min after the start of perfusion.
Test [3] is described as follows: Effect (3.0 uM) on K+-evoked release of [3H]acetylcholine from striatal slices of reserpine-alpha MPT treated mice evoked by two successive exposures (S1and S2) at 55 and 90 min after the start of perfusion.
The nature of test [4]: Effect (0.3 uM) on K+-evoked release of [3H]acetylcholine from striatal slices of reserpine-alpha MPT treated mice evoked by two successive exposures (S1and S2) at 55 and 90 min after the start of perfusion.

By IC50 is commonly meant the point on the concentration scale where inhibition reaches its midpoint.

The structures appear in SMILES notation.

In the test filed under Mus musculus, `NCCc1ccc(O)c(O)c1` [DOPAMINE] came in with an IC50 of 10 µM. As to `C[S+](C)c1ccc2cc(O)c(O)cc2c1.[Br-]`, the Ratio in test [1] came to 0.98; in test [2] it was 0.81; in test [3], 0.86; in test [4] it was 0.85. `NC1CCc2cc(O)c(O)cc2C1` (stereo not drawn) came in with an IC50 in the test listed under Mus musculus of 0.01 µM. In the test listed under Mus musculus, `CN(C)CCc1ccc(O)c(O)c1` yielded an IC50 of 10 µM. Turning to `CC(N)Cc1ccc(O)c(O)c1` (stereo not drawn), in the test filed under Mus musculus, the half-maximal inhibitory concentration (IC50) came to 10 µM. This lies in the double-digit micromolar range.

The record behind these values is ChEMBL document CHEMBL1122657, “Dopaminergic agonists: comparative actions of amine and sulfonium analogues of dopamine” (J Med Chem, 1984).
